Assay results published in patent publication US10689318B2, “Bisphenol having fluorene skeleton, method for producing same, polyarylate resin, (meth)acrylate compound and epoxy resin which are derived from the bisphenol” (TAOKA CHEMICAL CO., LTD., priority 2016, dated 2020).

Experiments:
Assay type in all cases: physicochemical
[1] = 5% weight loss temperature (thermogravimetric instrument); conditions: bisphenol; 10° C./min from room temperature to 500° C., nitrogen gas stream
Protocol: [6] 5% Weight Loss Temperature
Using a thermogravimetric instrument (TGA-50 from Shimadzu Corporation), measurement was performed with the temperature elevated at a rate of 10° C./min from room temperature to 500° C. under a nitrogen gas stream.

[2] = Refractive index and Abbe number (Abbe refractometer, NMP solutions extrapolated to 100% by weight); conditions: 20° C.; for Refractive index: 589 nm; for Abbe number: calculated from extrapolated refractive indices at 486, 589, 656 nm
Protocol: [5] Refractive Index and Abbe Number
The refractive index of each of the bisphenol, the polyarylate resin, the (meth)acrylate compound and the epoxy resin is a value determined using the following method and conditions. In addition, the Abbe number of each of the (meth)acrylate compound and the epoxy resin was calculated on the basis of the refractive index measured using the following method and conditions. • Apparatus: Abbe refractometer (“multiwavelength Abbe refractometer DR-2M” manufactured by ATAGO CO., LTD.) • Measurement wavelength: 589 nm (refractive index), 486, 589, 656 nm (Abbe number) • Measurement temperature: 20° C. • Refractive index of bisphenol: The bisphenol was dissolved in N-methyl-2-pyrrolidone (hereinafter, sometimes referred to as NMP) to prepare 5 wt %, 10 wt % and 15 wt % solutions, and the refractive index was measured for each of the solutions using the above-mentioned apparatus and conditions. Next, an approximate curve was derived from the obtained three measured values, and a value obtained by extrapolating the curve at 100% by weight was defined as a refractive index of each bisphenol. • Refractive index of polyarylate resin: A polyarylate resin powder was dissolved in NMP to prepare 1 wt %, 3 wt % and 5 wt % solutions, and the refractive index was measured for each of the solutions using the above-mentioned apparatus and conditions. Next, an approximate curve was derived from the obtained three measured values, and a value obtained by extrapolating the curve at 100% by weight was defined as a refractive index of each polyarylate resin. • Refractive index and Abbe number of (meth)acrylate compound: Each (meth)acrylate compound was dissolved in NMP to prepare a 5 wt %, 10 wt % and 15 wt % solutions (for Comparative Examples 4 and 5, 1 wt %, 3 wt % and 5 wt % solutions were prepared because the (meth)acrylate compound was hardly soluble in an organic solvent), and the refractive index at each wavelength was measured for each of the solutions using the above-mentioned apparatus and conditions. Next, an approximate curve was derived from the obtained three measured values, a value obtained by extrapolating the curve at 100% by weight was defined as a refractive index of each (meth)acrylate compound at each wavelength, and the Abbe number was calculated on the basis of the refractive index at each wavelength, which was determined as described above. • Refractive index and Abbe number of epoxy resin: Each epoxy resin was dissolved in NMP to prepare 5 wt %, 10 wt % and 15 wt % solutions, and the refractive index at each wavelength was measured for each of the solutions using the above-mentioned apparatus and conditions. Next, an approximate curve was derived from the obtained three measured values, a value obtained by extrapolating the curve at 100% by weight was defined as a refractive index of each epoxy resin at each wavelength, and the Abbe number was calculated on the basis of the refractive index at each wavelength, which was determined as described above.

[3] = Solubility test of (meth)acrylate compound; parameters: key: ◯: The sample is dissolved at room temperature.; Δ: The sample is dissolved when heated, and crystals are not precipitated even when the sample is cooled.; x: The sample is dissolved when heated, but crystals are precipitated when the sample is cooled, or the sample is not dissolved even when heated; conditions: for Solubility (30 mass % concentration) Monofunctional acrylate OPPEA: 30 parts by weight acrylate + 70 parts 2-phenylphenoxyethyl acrylate; for Solubility (30 mass % concentration) Solvent EA: 30 parts by weight acrylate + 70 parts ethyl acetate; for Solubility (30 mass % concentration) Monofunctional acrylate POB-A: 30 parts by weight acrylate + 70 parts m-phenoxybenzyl acrylate; for Solubility (30 mass % concentration) Solvent MEK: 30 parts by weight acrylate + 70 parts methyl ethyl ketone; for Solubility (30 mass % concentration) Solvent PGME: 30 parts by weight acrylate + 70 parts propylene glycol monomethyl ether; for Solubility (30 mass % concentration) Solvent PGMEA: 30 parts by weight acrylate + 70 parts propylene glycol monomethyl ether acetate
Protocol: (9-2) Solubility Test of (Meth)Acrylate Compound
30 parts by weight of the (meth)acrylate compound and 70 parts by weight of each of the diluents (solvent or monofunctional acrylate) shown in Table 3 were mixed, and solubility was evaluated on the basis of the following evaluation criteria.
◯: The sample is dissolved at room temperature.
Δ: The sample is dissolved when heated, and crystals are not precipitated even when the sample is cooled.
x: The sample is dissolved when heated, but crystals are precipitated when the sample is cooled, or the sample is not dissolved even when heated.

[4] = Glass transition temperature (DSC); conditions: (meth)acrylate compound; DSC 10° C./min
Protocol: [4] Melting Point (Melt Endothermic Maximum Temperature in Differential Scanning Calorimetry (DSC)) and Glass Transition Temperature
5 mg of a sample was precisely weighed, and taken in an aluminum pan, measurement was performed under the following operation conditions with aluminum oxide as a control using a differential scanning calorimeter (DSC 7020 manufactured by SII NanoTechnology Inc.), and the detected melt endothermic maximum temperature was defined as a melting point. For a sample (amorphous material, resin or the like) in which a melt endothermic peak was not detected, the intersection of tangent lines at an inflection point was defined as a glass transition temperature (Tg).
• Temperature elevation rate: 10° C./min (for bisphenol and (meth)acrylate compound) and 20° C./min (for polyarylate resin) • Measurement range: 30 to 250° C. (for bisphenol), 150 to 250° C. (for polyarylate resin) and −30 to 350° C. (for (meth)acrylate compound) • atmosphere: Open, nitrogen: 40 ml/min

[5] = bisphenol, 5, 10, 15 wt % NMP solutions extrapolated to 100% by weight
[6] = (meth)acrylate compound, 5, 10, 15 wt % NMP solutions (Comparative Examples 4 and 5: 1, 3, 5 wt %) extrapolated to 100% by weight

SMILES	5% weight loss temperature [1]	Refractive index [2, 5]	Refractive index [2, 6]	Abbe number ([2]; (meth)acrylate compound)	Solubility (30 mass % concentration) Monofunctional acrylate OPPEA [3]	Solubility (30 mass % concentration) Solvent EA [3]	Solubility (30 mass % concentration) Monofunctional acrylate POB-A [3]	Solubility (30 mass % concentration) Solvent MEK [3]	Solubility (30 mass % concentration) Solvent PGME [3]	Solubility (30 mass % concentration) Solvent PGMEA [3]	Tg [4]
OCCOc1ccc(C2(c3ccc(OCCO)c(-c4ccccc4)c3)c3ccccc3-c3ccccc32)cc1-c1ccccc1 [Reference Example 1]	363 °C	1.65	–	–	–	–	–	–	–	–	–
C=CC(=O)Oc1ccc(C2(c3ccc(OC(=O)C=C)c(C)c3)c3ccccc3-c3ccccc32)cc1C [Comparative Example 4]	–	–	1.606	25.5	x	x	x	x	x	x	–
C=CC(=O)Oc1ccc(C2(c3ccc(OC(=O)C=C)c(-c4ccccc4)c3)c3ccccc3-c3ccccc32)cc1-c1ccccc1 [Comparative Example 5]	–	–	1.644	21.4	x	x	x	x	x	x	–
C=CC(=O)Oc1ccc2ccccc2c1-c1c(OC(=O)C=C)ccc2ccccc12 [Reference Example 2]	–	–	1.632	19.0	x	∘	x	∘	x	x	–
Oc1c(Cc2ccccc2)cc(C2(c3cc(Cc4ccccc4)c(O)c(-c4ccccc4)c3)c3ccccc3-c3ccccc32)cc1-c1ccccc1 [Example 1]	357 °C	1.67	–	–	–	–	–	–	–	–	–
C=CC(=O)OCCOc1ccc(C2(c3ccc(OCCOC(=O)C=C)c(C)c3)c3ccccc3-c3ccccc32)cc1C [Comparative Example 6]	–	–	1.591	23.1	∘	∘	∘	∘	x	∘	0.0 °C
C=CC(=O)Oc1c(Cc2ccccc2)cc(C2(c3cc(Cc4ccccc4)c(OC(=O)C=C)c(-c4ccccc4)c3)c3ccccc3-c3ccccc32)cc1-c1ccccc1 [Example 5]	–	–	1.633	19.7	∘	∘	∘	∘	∘	∘	32.4 °C
Oc1ccc(C2(c3ccc(O)c(-c4ccccc4)c3)c3ccccc3-c3ccccc32)cc1-c1ccccc1 [Comparative Example 1]	306 °C	1.67	–	–	–	–	–	–	–	–	–
